The results in this text go back to BindingDB's records for doi:10.1111/cbdd.12713 (Novartis Institutes of Biomedical Research Institute, 2016).

In the assay the target is T1, Aquaporin-1 (Homo sapiens, UniProt P29972).
T1 sequence (P29972 whole entry): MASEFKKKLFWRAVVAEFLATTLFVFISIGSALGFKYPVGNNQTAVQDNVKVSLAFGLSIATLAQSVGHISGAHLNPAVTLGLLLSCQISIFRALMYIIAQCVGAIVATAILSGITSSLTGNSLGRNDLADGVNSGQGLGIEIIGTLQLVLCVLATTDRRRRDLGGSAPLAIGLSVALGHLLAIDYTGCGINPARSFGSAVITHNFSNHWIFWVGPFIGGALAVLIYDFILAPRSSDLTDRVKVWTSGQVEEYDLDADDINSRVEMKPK
Put plainly: Stopped-flow Assay. On the procedure: Osmotic water permeability was measured at 22-24 °C bymonitoring 90° scattered light intensity at 520 nm wavelength. Measurements were made using a PiStar 180 (Applied Photophysics, UK), with a dead time of 1-2 milliseconds. Thirty minutes prior to the assay, stripped red blood cell ghosts or proteoliposomes containing purified AQP1 and stored in ice were treated with mercuric chloride (50-100 µM; positive control for inhibition) or with the various compounds usually at a concentration of 150 µM. Stock solutions of compounds were in 100% ethanol (for stripped erythrocyte membrane experiments) and in 100% DMSO (for proteoliposome experiments). An inwardly directed osmotic gradient (hyperosmotic shock) was created by mixing the vesicles maintained in Buffer A (50 mM sodium phosphate buffer pH, 100 mM NaCl, 1 mM EDTA, 0.025% sodium azide) with an equal volume of 200 mM mannitol. On the other hand, vesicles preincubated with 200 mM mannitol were mixed with Buffer A to create an outwardly
`NCC1Cc2cc(F)cc(-c3ccc(Cl)cc3Cl)c2O1` (stereo unspecified) [[7-(2,4-dichlorophenyl)-5-fluoro-2,3-dihydro-1-benzofuran-2-yl]methanamine (Compound 5)]: the IC50 worked out at 15.2 µM.
On to `Nc1nc(NC[C@H]2CC[C@H](CNS(=O)(=O)c3ccc4ccccc4c3)CC2)nc2ccccc12`, for which the IC50 is 3.9 µM.
With `Nc1nc(NC[C@H]2CC[C@H](CNS(=O)(=O)c3cccc4ccccc34)CC2)nc2ccccc12` [CGP 71683] the figure was 2.7 µM.
With `Nc1nc(NC[C@H]2CC[C@H](CNS(=O)(=O)c3cccc4c(Cl)cccc34)CC2)nc2ccccc12` [5-chloro-N-{[(1r,4r)-4-{[(4-aminoquinazolin-2-yl)amino]methyl}cyclohexyl]methyl}naphthalene-1-sulfonamide (Compound 3)], the IC50 worked out at 5.8 µM.
`CNCC1Cc2cc(F)cc(-c3c(Cl)cccc3Cl)c2O1` (stereo unspecified) [{[7-(2,6-dichlorophenyl)-5-fluoro-2,3-dihydro-1-benzofuran-2-yl]methyl}(methyl)amine (Compound 6)] returned an IC50 of 29.4 µM.
For the compound `CNCC1Cc2cc(F)cc(-c3ccc(Cl)cc3Cl)c2O1` (stereo unspecified) [{[7-(2,4-dichlorophenyl)-5-fluoro-2,3-dihydro-1-benzofuran-2-yl]methyl}(methyl)amine (Compound 4)], the IC50 came out at 9.8 µM.
